Active and inactive are the calls of the source. The rule behind the calls is not given here.
Legend:
[1] = molecular target: T1, Peroxisome proliferator-activated receptor delta (Homo sapiens) (UniProt Q03181); assay: Transactivation of PPARdelta (unknown origin) expressed in HEK293A cells after 16 to 18 hrs by luciferase reporter assay; type: cell-based; details: HEK293-A
T1 sequence (whole entry): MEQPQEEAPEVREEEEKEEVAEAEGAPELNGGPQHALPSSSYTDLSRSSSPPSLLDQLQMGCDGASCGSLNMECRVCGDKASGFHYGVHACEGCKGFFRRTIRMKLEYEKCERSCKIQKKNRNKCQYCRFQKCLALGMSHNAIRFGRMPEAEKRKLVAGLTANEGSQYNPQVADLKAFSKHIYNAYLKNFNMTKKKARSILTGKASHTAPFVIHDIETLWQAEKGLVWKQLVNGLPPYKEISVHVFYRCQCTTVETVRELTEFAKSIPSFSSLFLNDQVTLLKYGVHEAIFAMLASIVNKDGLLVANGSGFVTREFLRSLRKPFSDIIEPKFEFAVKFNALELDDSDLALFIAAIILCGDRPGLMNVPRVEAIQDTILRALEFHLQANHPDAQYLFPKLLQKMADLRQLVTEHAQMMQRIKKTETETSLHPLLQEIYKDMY

[2] = molecular target: T2, Peroxisome proliferator-activated receptor alpha (Homo sapiens) (UniProt Q07869); assay: Antagonist activity at PPARalpha in human HepG2 cells assessed as inhibition of GW7647-induced CPT1 mRNA expression at 150 uM after 48 hrs by RT-PCR method; type: cell-based
T2 sequence (whole entry): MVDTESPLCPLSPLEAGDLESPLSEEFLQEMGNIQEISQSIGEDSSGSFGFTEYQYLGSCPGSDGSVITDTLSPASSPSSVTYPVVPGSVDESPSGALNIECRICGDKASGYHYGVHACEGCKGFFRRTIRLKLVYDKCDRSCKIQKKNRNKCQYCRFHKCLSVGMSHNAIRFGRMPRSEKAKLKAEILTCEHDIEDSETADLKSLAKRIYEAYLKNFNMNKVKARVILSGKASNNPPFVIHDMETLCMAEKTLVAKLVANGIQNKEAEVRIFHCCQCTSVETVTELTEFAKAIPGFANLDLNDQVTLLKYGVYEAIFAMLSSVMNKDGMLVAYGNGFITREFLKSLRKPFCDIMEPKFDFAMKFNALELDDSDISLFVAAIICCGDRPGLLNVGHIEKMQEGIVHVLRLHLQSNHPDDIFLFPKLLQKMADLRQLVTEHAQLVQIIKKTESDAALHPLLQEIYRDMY

[3] = molecular target: T3, Peroxisome proliferator-activated receptor alpha (Homo sapiens, UniProt Q07869); assay: Antagonist activity at PPARalpha (unknown origin) expressed in HEK293A cells assessed as inhibition of GW7647-induced transactivation after 16 to 18 hrs by luciferase reporter assay; type: cell-based, HEK293-A
T3 sequence (Q07869 whole entry): T2 sequence (whole entry)

[4] = molecular target: T2, Peroxisome proliferator-activated receptor alpha (Homo sapiens); assay: Transactivation of PPARalpha (unknown origin) expressed in HEK293A cells at 150 uM after 16 to 18 hrs by luciferase reporter assay relative to control; type: cell-based; details: HEK293-A
[5] = molecular target: T2, Peroxisome proliferator-activated receptor alpha (Homo sapiens); assay: Transactivation of PPARalpha in human HepG2 cells assessed as increase in CPT1 mRNA expression at 150 uM after 48 hrs by RT-PCR method; type: cell-based
[6] = molecular target: T4, Peroxisome proliferator-activated receptor gamma (Homo sapiens) (UniProt P37231); assay: Antagonist activity at PPARgamma (unknown origin) expressed in HEK293A cells after 16 to 18 hrs by luciferase reporter assay; type: cell-based; details: HEK293-A
T4 sequence (whole entry): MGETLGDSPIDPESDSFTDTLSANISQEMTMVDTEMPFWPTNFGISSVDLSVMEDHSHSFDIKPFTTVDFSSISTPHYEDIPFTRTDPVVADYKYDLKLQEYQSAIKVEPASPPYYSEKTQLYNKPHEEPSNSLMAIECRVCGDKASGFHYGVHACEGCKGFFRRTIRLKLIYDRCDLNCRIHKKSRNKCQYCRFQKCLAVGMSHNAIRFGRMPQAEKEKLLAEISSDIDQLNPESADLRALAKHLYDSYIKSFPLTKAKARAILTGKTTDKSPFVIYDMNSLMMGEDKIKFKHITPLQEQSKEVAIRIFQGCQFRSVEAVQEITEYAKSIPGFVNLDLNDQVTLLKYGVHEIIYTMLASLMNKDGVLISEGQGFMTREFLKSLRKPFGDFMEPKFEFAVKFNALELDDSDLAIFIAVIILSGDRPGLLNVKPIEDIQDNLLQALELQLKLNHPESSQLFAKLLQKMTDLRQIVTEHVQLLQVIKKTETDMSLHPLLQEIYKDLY

[7] = molecular target: T4, Peroxisome proliferator-activated receptor gamma (Homo sapiens); assay: Transactivation of PPARgamma (unknown origin) expressed in HEK293A cells at IC50 after 16 to 18 hrs by luciferase reporter assay; type: cell-based; details: HEK293-A

Row | SMILES | Activity [1] | inhibition [2] | IC50 [3] [µM] | fold change (FC) [4] | Activity [5] | inhibition [6] | Activity [7]
1 | O=C(NS(=O)(=O)c1ccc([N+](=O)[O-])cc1)C(Sc1nc2cc(Cl)ccc2s1)c1ccccc1 (stereo not given) | inactive | Active | 0.82 | 0.22 | inactive | Active | 
2 | CCCC(Sc1nc2cc(Cl)ccc2s1)C(=O)NS(=O)(=O)c1ccc([N+](=O)[O-])cc1 (stereo not given) | inactive | Active | 0.85 | 0.03 | inactive | Active | 
3 | Cc1ccc(C)c(OCCCC(C)(C)C(=O)NS(=O)(=O)c2ccccc2)c1 |  |  | 8.8 | 0.05 |  |  | 
4 | CCCC(Sc1nc2cc(Cl)ccc2s1)C(=O)NS(=O)(=O)c1ccc(C)cc1 (stereo not given) | inactive |  | 4.6 | < 0.01 |  | Active | 
5 | CCCC(Sc1nc2cc(Cl)ccc2s1)C(=O)NS(=O)(=O)c1ccc(Cl)cc1 (stereo not given) | inactive |  | 6.86 | 0.04 |  | Active | 
6 | CC(C)(Oc1ccc(C(=O)c2ccc(Cl)cc2)cc1)C(=O)NS(=O)(=O)c1ccccc1 |  |  | 7.65 | 0.08 |  |  | 
7 | CC(C)(Oc1ccc(Cl)cc1)C(=O)NS(=O)(=O)c1ccccc1 |  |  | 0.65 | 0.47 |  |  | 
8 | CCCC(Sc1nc2cc(Cl)ccc2s1)C(=O)NS(=O)(=O)c1ccc(NC(=O)c2ccccc2)cc1 (stereo not given) | inactive |  | 4.5 | 0.05 |  | Active | 
9 | CC(C)(Oc1ccc(CCNC(=O)c2ccc(Cl)cc2)cc1)C(=O)NS(=O)(=O)c1ccccc1 |  |  | 0.8 | 0.28 |  |  | 
10 | CCCC(Sc1nc2cc(Cl)ccc2s1)C(=O)NS(=O)(=O)c1ccc(OC)cc1 (stereo not given) | inactive | Active | 0.68 | < 0.01 | inactive | Active | 
11 | CCCC(Sc1nc2cc(Cl)ccc2s1)C(=O)NS(=O)(=O)c1ccc(NC(C)=O)cc1 (stereo not given) | inactive |  | 108 | 0.2 |  | Active | 
12 | O=C(NS(=O)(=O)c1ccc(Cl)cc1)C(Sc1nc2cc(Cl)ccc2s1)c1ccccc1 (stereo not given) | inactive |  |  | 0.9 |  |  | Active

— ChEMBL document CHEMBL3779850, “Synthesis, in vitro evaluation, and molecular modeling investigation of benzenesulfonimide peroxisome proliferator-activated receptors α antagonists” (Eur J Med Chem, 2016)
